Laboratory results published in ChEMBL document CHEMBL6182916, “Unexpected Discovery of a Novel Triphenylphosphonium Alkylalcohol That Triggers Cancer Cell Death via Mitophagy and Ferroptosis” (J Med Chem, 2025).
Calls of active or inactive are those of the source. The rule behind the calls is not given here.

Legend:
HCC827 [1] = assay: Downregulation of VDAC1 expression level in human HCC827 cells 0.5 uM incubated for 3 to 24 hrs in presence of BFA by Western blot analysis; format: functional, cell-based; details: time 3-24 hrs
HCC827 [2] = assay: Downregulation of SDHB expression in human HCC827 cells at 0.25 to 0.5 uM; format: functional, cell-based; details: dose 0.25-0.5 µM
HCC827 [3] = assay: Effect on UQCRC2 expression in human HCC827 cells at 0.25 to 0.5 uM incubated for 24 hrs by Western blot analysis; format: functional, cell-based; details: dose 0.25-0.5 µM
HCC827 [4] = assay: Induction of apoptosis in human HCC827 cells assessed as necrotic cells at 1 uM measured after 48 hrs by annexin V and PI staining based flow cytometry analysis (Rvb =0.84%); format: functional
HCC827 [5] = assay: Downregulation of HK-2 expression level in human HCC827 cells 0.5 uM incubated for 3 to 24 hrs in presence of BFA by Western blot analysis; format: functional, cell-based; details: time 3-24 hrs
HCC827 [6] = assay: Induction of ROS generation in human HCC827 cells assessed as green fluorescence intensity at 1 uM incubated for 24 hrs by DCFH-DA staining based by absorbance based laser confocal microscopic analysis; format: functional, cell-based
HCC827 [7] = assay: Downregulation of VDAC1 expression level in human HCC827 cells incubated for 24 hrs by Western blot analysis; format: functional, cell-based; details: dose 0.25-5 µM
HCC827 [8] = assay: Induction of ROS generation in human HCC827 cells assessed as fold change at 1 uM incubated for 4 hrs in presence of VC by DCFH-DA staining based by absorbance based laser confocal microscopic analysis (reference value: 2.67); format: functional
[9] = Antiproliferative activity against human LO2 cells assessed as inhibition of cell growth measured after 72 hrs by MTT assay; format: toxicity, cell-based, L02
[10] = Drug accumulation in mitochondria of human HCC827 cells at 10 uM incubated for 5 mins; format: ADME; details: hcc827, 5 min
[11] = Toxicity in female BALB/c mouse assessed as animal death at 30 mg/kg, ip measured for 7 days; format: organism-based; details: in vivo, 168 h, time 7 day
[12] = Toxicity in female BALB/c mouse assessed as histopathological changes in kidney at 30 mg/kg, ip measured for 7 days by H and E staining based analysis; format: organism-based; details: in vivo, 168 h, time 7 day
HCC827 [13] = assay: Upregulation of PINK1 level in human HCC827 cells at 0.25 to 0.5 uM measured after 24 hrs; format: functional, cell-based; details: dose 0.25-0.5 µM
BEAS-2B [14] = assay: Induction of mitochondrial dysfunction in human BEAS-2B cells assessed as reduction in glycolytic capacity at 0.125 to 5 uM incubated for 4 hrs by Seahorse XF96 extracellular flux analyzer; format: functional, cell-based; details: dose 0.125-5 µM
HCC827 [15] = assay: Effect on NDUFB8 expression in human HCC827 cells at 0.25 to 0.5 uM incubated for 24 hrs by Western blot analysis; format: functional, cell-based; details: dose 0.25-0.5 µM
HCC827 [16] = assay: Downregulation of SDHB expression in human HCC827 cells incubated for 24 hrs by Western blot analysis; format: functional, cell-based; details: dose 0.25-0.5 µM
MCF7 = assay: Antiproliferative activity against human MCF7 cells assessed as inhibition of cell growth measured after 72 hrs by MTT assay; format: functional, cell-based; details: MCF7, 72 h
HCC827 [17] = assay: Induction of apoptosis in human HCC827 cells assessed as late apoptotic cells at 1 uM measured after 48 hrs by annexin V and PI staining based flow cytometry analysis (reference value: 2.18%); format: functional
HCC827 [18] = assay: Downregulation of TIMM23 expression level in human HCC827 cells at 0.5 uM by Western blot analysis; format: functional, cell-based; details: time 3-24 hrs
[19] = Antiproliferative activity against HEK293T cells assessed as inhibition of cell growth measured after 72 hrs by MTT assay; format: toxicity, cell-based, HEK-293T; details: human
HCC827 [20] = assay: Antitumor activity against human HCC827 cells xenografted in female nude mouse model assessed as reduction in tumor weight at 5 to 10 mg/kg, ip measured every two days for 14 days; format: functional, organism-based; details: dose 5-10 mg/kg, time 14.0 day
HCC827 [21] = assay: Downregulation of SDHB protein level in human HCC827 cells at 0.25 to 0.5 uM measured after 12 hrs; format: functional, cell-based; details: dose 0.25-0.5 µM
HCC827 [22] = assay: Antiproliferative activity against human HCC827 cells assessed as increase in cell viability at 1 uM measured after 48 hrs in presence of 3-MA by MTT assay; format: functional, cell-based
HeLa [23] = assay: Induction of mitophagy in human HeLa cells assessed as colocalization of mitochondria and lysosomes at 0.5 uM by mitoGFP staining based confocal microscopy analysis; format: functional, cell-based
HCC827 [24] = assay: Induction of ferroptosis in human HCC827 cells assessed as decrease in glutathione reductase activity at 0.25 to 0.5 uM incubated for 24 hrs by DTNB solution based based microplate reader analysis; format: functional, cell-based; details: dose 0.25-0.5 µM
HCC827 [25] = assay: Induction of mitochondrial dysfunction in human HCC827 cells assessed as reduction in glycolytic capacity at 0.125 to 5 uM incubated for 4 hrs by Seahorse XF96 extracellular flux analyzer; format: functional, cell-based; details: dose 0.125-5 µM
Mitochondrial membrane = assay: Induction of mitochondrial membrane depolarization in human BEAS-2B cells assessed as JC-1 monomer ratio by measuring increase green fluorescence at 0.25 uM incubated for 4 hrs by JC-1 staining based confocal microscopy analysis; format: cell membranes
HCC827 [26] = assay: Antiproliferative activity against human HCC827 cells assessed as cell viability preincubated with Nec followed by compound addition and measured after 48 hrs by MTT assay; format: functional, cell-based
HeLa [27] = assay: Induction of mitophagy in human HeLa cells assessed as colocalization of mitochondria and lysosomes at 0.5 uM by lysotracker red staining based confocal microscopy analysis; format: functional, cell-based
HCC827 [28] = assay: Antimetastatic activity against human HCC827 cells xenografted in female nude mouse model assessed as increase in cadherin level at 5 to 10 mg/kg, ip by Western blot analysis; format: functional, organism-based; details: dose 5-10 mg/kg
HCC827 [29] = assay: Downregulation of VDAC1 expression level in human HCC827 cells 0.25 to 0.5 uM incubated for 24 hrs in presence of BFA by Western blot analysis; format: functional, cell-based; details: dose 0.25-0.5 µM
[30] = Toxicity in female Kunming mouse assessed as animal death at 70 mg/kg, ip measured every two days for 7 days; format: organism-based; details: in vivo, 168 h, time 7 day
HCC827 [31] = assay: Induction of cell cycle arrest in human HCC827 cells assessed as accumulation of cells at G2 phase at 0.2 uM incubated for 24 hrs by PI staining based flow cytometry analysis (reference value: 7.15%); format: functional
[32] = system: Osimertinib-resistant NCI-H1975 cell; assay: Antiproliferative activity against human Osimertinib-resistant NCI-H1975 cell assessed as inhibition of cell growth measured after 72 hrs by MTT assay; format: functional, cell-based
[33] = Toxicity in female BALB/c mouse assessed as histopathological changes in heart at 30 mg/kg, ip measured for 7 days by H and E staining based analysis; format: organism-based; details: in vivo, 168 h, time 7 day
BEAS-2B [34] = assay: Induction of mitochondrial dysfunction in human BEAS-2B cells assessed as reduction in glycolytic reserve at 0.125 to 5 uM incubated for 4 hrs by Seahorse XF96 extracellular flux analyzer; format: functional, cell-based; details: dose 0.125-5 µM
HCC827 [35] = assay: Induction of mitochondrial dysfunction in human HCC827 cells assessed as appearance of disrupted cristae at 1 uM after 24 hrs by TEM analysis; format: functional, cell-based
HCC827 [36] = assay: Induction of ROS generation in human HCC827 cells at 1 uM incubated for 4 hrs in presence of NAC by DCFH-DA staining based by absorbance based laser confocal microscopic analysis; format: functional, cell-based

Cc1ccc([P+](CCCCCCCCCCO)(c2ccc(C)cc2)c2ccc(C)cc2)cc1.[Br-]
Activity (HCC827 [1]): inactive | Activity (HCC827 [2]): Active | Activity (HCC827 [3]): Active | Activity (HCC827 [4]): 2.02% | Activity (HCC827 [5]): inactive | Activity (HCC827 [6]): Active | Activity (HCC827 [7]): Dose-dependent-effect | Activity (HCC827 [8]): 0.8 | IC50 at 72 h [9]: 1310 nM | Drug uptake [10]: 93% | Activity [11]: Non-toxic | Activity [12]: Non-toxic | Activity (HCC827 [13]): Active | Activity (BEAS-2B [14]): Minimal_effect | Activity (HCC827 [15]): Active | Activity (HCC827 [16]): Active | IC50 (MCF7): 160 nM | Activity (HCC827 [17]): 0.75% | Activity (HCC827 [18]): Time-dependent-effect | IC50 at 72 h [19]: 1520 nM | Activity (HCC827 [20]): Active | Activity (HCC827 [21]): Active | Activity (HCC827 [22]): Active | Activity (HeLa [23]): Active | Activity (HCC827 [24]): Active | Activity (HCC827 [25]): Active | Activity (Mitochondrial membrane): inactive | IC50 (HCC827 [26]): 130 nM | Activity (HeLa [27]): Active | Activity (HCC827 [28]): Active | Activity (HCC827 [29]): inactive | Activity [30]: Toxic | Activity (HCC827 [31]): 3.91% | IC50 [32]: 230 nM | Activity [33]: Non-toxic | Activity (BEAS-2B [34]): Minimal_effect | Activity (HCC827 [35]): Active | Activity (HCC827 [36]): inactive
